Where “and” joins values, the source holds several entries; their conditions need not be identical. Equal entries are not always repeated.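 Protocol summary: plate cells (96-well), add compound at 5 concentrations, incubate 48 h, interpolate endpoints linearly. Abbreviation: GI50, concentration required for 50% inhibition of growth. TGI marks complete inhibition of growth.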

We go through 38 compounds from PubChem BioAssay (NCI).

Common to all, as to assay: NCI tumour cell line growth inhibition, 48 h
For assay [1], the system named is RXF-631 renal.
The subject of assay [2] is DMS 273 small cell lung.
Assay [3] deals with DMS 114 small cell lung.
In assay [4] the test system is DLD-1 colon.
Assay [5] relates to LXFL 529 NSCLC.
The subject of assay [6] is M19-MEL melanoma.
The test system of assay [7] is HOP-18 NSCLC.
Assay [8] has as its system XF 498 CNS.
Assay [9] deals with MDA-N.
Assay [10] deals with P388 leukemia.
For assay [11], the system named is SN12K1 renal.
The test system of assay [12] is P388/ADR leukemia.

Take `O=C(CCCNC(=O)OCc1ccccc1)OCc1ccc2c(c1)C(=O)c1ccccc1C2=O`: the TGI in assay [1], in assay [2], in [3], in assay [4] and in [5] was more than 100 µM throughout.
As to `CN(/N=C/c1ccnc2ccccc12)c1ccc([N+](=O)[O-])cc1[N+](=O)[O-]`, the TGI in [6], in assay [2], in assay [3], in assay [4], in [7] and in assay [8] was more than 100 µM throughout. The compound also displayed a TGI in assay [5] of more than 100 µM.
Turning to `O=C(N/C(=C\c1ccc(Br)cc1)c1nc2ccccc2s1)c1ccccc1`, the TGI in assay [6], in assay [1], in assay [2], in [3], in assay [4] and in assay [7] was more than 100 µM throughout. The TGI in [8] and in [5] was more than 100 µM each time.
For `CC1CCCN(CC(O)CN2CCCc3ccccc32)C1` (configuration not stated), in [9], the TGI was more than 100 µM.
For the compound `CC(=O)OCC(OC(C)=O)C(OC(C)=O)C(OC(C)=O)C(=O)CNn1c(-c2ccccc2)nc2ccc(Br)cc2c1=O` (configuration not stated), the TGI in [6], in assay [2], in [3], in assay [8] and in assay [5] was more than 100 µM in each case.
As for `CC(C)CC(CNC(Cc1ccc(Cl)cc1)C(N)=O)NC(=O)C(Cc1cnc[nH]1)NC(=O)CNC(=O)C(NC(=O)C(C)NC(=O)C(Cc1c[nH]c2ccccc12)NC(=O)C(CCC(=O)O)NC(=O)C(N)Cc1ccccc1)C(C)C` (configuration not stated), the TGI in assay [6], in assay [1], in assay [2], in assay [3], in assay [4] and in assay [8] was more than 133 µM throughout. Besides, in assay [5], the TGI was more than 133 µM.
Regarding `O=C(O)c1ccc(S(=O)(=O)N=Nc2c(O)[nH]c3ccccc23)cc1`, in assay [9], the TGI was more than 100 µM.
For `CC1=Nc2c([nH]c(=S)[nH]c2=O)NC(c2ccc(Cl)c(Cl)c2)C1` (configuration not stated), the TGI is 34.2 µM in assay [6]; more than 72.9 µM in assay [2]; more than 81 µM in assay [3]; more than 56.7 µM in [4]; more than 100 µM in assay [7]; more than 100 µM in assay [8]. The TGI in assay [5] amounted to 37.8 µM.
For the compound `CN(C)c1nc(N(C)C)n2nc(-c3ccccc3[N+](=O)[O-])nc2n1`, the TGI in assay [6], in assay [2], in [3], in assay [4], in assay [7] and in [8] was more than 100 µM in each case. This compound also yielded a TGI in [5] of more than 100 µM.
`C=C1C(=O)O[C@H]2[C@H]1[C@H](OC(=O)/C(C)=C\C)C[C@]1(CO1)[C@@H]1[C@H](OC(C)=O)C=C(C)[C@]21O` registered a TGI in [9] of 34.8 µM.
Take `COc1ccc(/C(Cl)=C(\C=O)c2ccc(Br)cc2)cc1OC`: the TGI in assay [6] was more than 100 µM; in assay [1], more than 100 µM; in assay [2], more than 100 µM; in assay [4], more than 100 µM; in assay [7] it was more than 100 µM; in assay [8], 39.8 µM. The TGI in [5] is more than 100 µM.
With `O=C(O)c1ccc(N=Nc2cc(S(=O)(=O)O)c3cccnc3c2O)cc1`, the TGI in assay [6], in assay [2], in assay [3], in assay [4] and in [8] was more than 100 µM in each case.
`OCC(O)COc1c(Cl)ccc(Cl)c1Cl` (configuration not stated): the TGI in [6], in assay [2], in assay [3], in [4], in assay [7] and in assay [8] was more than 100 µM each time. Also, the TGI in assay [5] is more than 100 µM.
For `COc1cc(OC)c(OC)cc1/C=C1\C=Cc2ccccc21`, in assay [9], the TGI turned out to be 58.2 µM.
In the case of `O=C1C=CN(C2OC(CO)C(O)C2O)C(=O)C1` (configuration not stated), the TGI in assay [9] was more than 2500 µM; in [6] it was 1370 µM; in assay [10] it was 52.5 µM; in assay [2], more than 2500 µM; in assay [11], 625 µM and > 810 µM; in assay [12], more than 992 µM. Also, the TGI is 625 µM and > 2500 µM in assay [4]; more than 2500 µM in assay [7]; 1940 µM in [8]. The GI50 was more than 625 µM in assay [2]; 24.7 µM and 14.4 µM in assay [11]; 21.5 µM in assay [4]; more than 625 µM in assay [7]; 409 µM in [8].
Take `c1ccc2cc(OCC3CO3)c(OCC3CO3)cc2c1` (configuration not stated): the TGI in assay [9] came out at 22.9 µM.
With `C=C1CC2(OC1=O)c1ccccc1C=Cc1ccccc12`, the TGI in assay [9] was 4.47 µM; in assay [6], 11.8 µM; in assay [1] it was 33.1 µM; in [2], 28.2 µM; in assay [3], 21 µM; in assay [4], 3.76 µM. Moreover, the figures for the TGI in assay [7], in [8] and in assay [5] were 27.4 µM, 26.5 µM and 7.14 µM, respectively.
With `CCOC(=O)CC1=NC(=Nc2cc(Cl)ccc2Cl)SC1`, the TGI in assay [6], in assay [2], in [3], in assay [4], in assay [7] and in [8] was more than 100 µM each time. Further, the TGI in assay [5] was more than 100 µM.
Regarding `C[C@H]1COC2(c3ccccc3)CCC(=O)N12` (some centres not stated), the TGI in assay [6], in assay [2], in assay [3], in [4], in assay [7] and in [8] was more than 100 µM throughout.
Regarding `COC(=O)C1=C(c2cc(OC)c(OC)c(OC)c2)OC(c2cc(OC)c(OC)c(OC)c2)C1COC(C)=O` (configuration not stated), the TGI is more than 100 µM in assay [6]; 45.1 µM in assay [1]; more than 100 µM in [2]; more than 100 µM in assay [3]; more than 100 µM in [4]; more than 100 µM in assay [8]. This compound yielded a TGI in [5] of more than 100 µM.
In the case of `CCc1ccccc1-n1c2nc(=O)n(C)c(=O)c-2nc2ccccc21`, the TGI is 3.69 µM in [6]; 22.1 µM in [2]; 14.2 µM in [3]; 45.2 µM in assay [4]; 25 µM in assay [7]; 22 µM in [8]. For the same compound, the TGI in [5] was 24.8 µM.
Take `O=C(CCc1ccccc1)On1nnc2ccccc2c1=O`: the TGI in assay [6], in assay [2], in assay [3], in [4] and in assay [5] was more than 100 µM throughout.
In the case of `O=C1OC(c2ccccc2)=N/C1=C\c1c(O)cc(O)cc1O`, the TGI in [6], in [2], in [3], in assay [7] and in assay [5] was more than 100 µM throughout.
Turning to `Cc1cccc2c1Oc1cc(Cl)ccc1C2NC(=O)CN(C)C` (configuration not stated), the TGI is 47.6 µM in assay [6]; more than 100 µM in assay [2]; more than 100 µM in assay [3]; more than 100 µM in assay [4]; more than 100 µM in assay [5].
Turning to `N#CCC(=O)N/N=C1/C(=O)NC(=O)C(=O)C1c1nc2ccccc2s1` (configuration not stated), the TGI in assay [6], in [1], in [2], in assay [3], in [4] and in [7] was more than 100 µM each time. The compound further returned a TGI in assay [5] of more than 100 µM.
The compound `COc1ccc2[nH]c(-c3cccc(N(C)C)c3)cc(=O)c2c1` displayed a TGI in [9] of 0.156 µM.
For the compound `COc1ccc(/C(Cl)=C(\C=O)c2ccc(OC)c(OC)c2)cc1OC`, the TGI in assay [9], in assay [6], in assay [10], in assay [2], in [11] and in assay [3] was more than 100 µM each time. The TGI in [12] was more than 85.8 µM; in assay [4] it was more than 100 µM; in assay [7], more than 100 µM; in [8], more than 100 µM.
For `COc1ccc(/C=C/c2nc(=S)[nH][nH]2)cc1`, the TGI in assay [6], in assay [1], in assay [2], in assay [3], in assay [4] and in assay [8] was more than 100 µM throughout. In addition, in assay [5], the TGI was more than 100 µM.
`O=C(O)C(Br)C(Br)c1ccccc1[N+](=O)[O-]` (configuration not stated) yielded a TGI in assay [9] of more than 100 µM.
With `O=C1NC(=O)C2(CCC(O)C2)c2cc[n+]([O-])cc21` (configuration not stated), the TGI in assay [9] is more than 100 µM.
For the compound `CC1CCC2C(C)C3C(CC4C5CC=C6CC(OC7OC(CO)C(O)C(OC8OC(CO)C(O)C(O)C8O)C7OC7OC(C)C(O)C(O)C7O)CCC6(C)C5CCC43C)N2C1` (configuration not stated), in [9], the GI50 was more than 2.5 µg/mL; the TGI was 23.7 µM and > 2.5 µg/mL.
In turn, `O=[N+]([O-])c1cc(Cl)cc2c1nc(NCCO)c1ccccc12` registered a TGI in [9] of more than 100 µM.
For `CS(=O)(=O)OCCN(CCOS(C)(=O)=O)c1ccc(C=Nc2ccc3oc(=O)ccc3c2)cc1`, the TGI in assay [9] worked out at 35.8 µM; in assay [6] it was 39 µM; in [3], 22.3 µM; in [5], 36.4 µM.
In the case of `COC1(OC)CC2C(=O)N(Cc3ccccc3)C1CC2S(=O)(=O)c1ccccc1` (configuration not stated), the TGI was more than 100 µM in [6]; more than 100 µM in [2]; more than 100 µM in assay [3]; more than 100 µM in assay [4]; more than 100 µM in [7]; 98.7 µM in assay [8].
For `CC(=O)NCCCCCCNC(C)=O`, the TGI in assay [9] is more than 10000 µM; in [6], more than 10000 µM; in assay [10], more than 10000 µM; in [2], 7250 µM; in [11], more than 10000 µM; in assay [3] it was more than 10000 µM. Further, the TGI in [12] was more than 10000 µM; in assay [4] it was more than 10000 µM; in assay [7] it was more than 10000 µM; in assay [8] it was 8380 µM.
As to `CCOC(=O)C1=C(NC(C)(C)C)OCC1=O`, the TGI in assay [1], in assay [4], in assay [8] and in [5] was more than 100 µM in each case.
On to `CCCCSCc1nc2nc(Cl)c(Cl)nc2[nH]1`, for which, in [9], the TGI turned out to be 65.9 µM.
`Cc1c(C2Cc3ccccc3N2C(=O)/C=C\C(=O)O)c2ccccc2n1C` (configuration not stated): the TGI is 52.3 µM in assay [6]; more than 100 µM in [1]; more than 100 µM in assay [2]; 40 µM in [3]; more than 100 µM in assay [4]; 31.5 µM in assay [8]. In assay [5], the TGI turned out to be 34.8 µM.
